Measured values from US20250352524A1, “PREVENTION OF METASTATIC OUTGROWTH USING TEAD INHIBITORS” (Georgetown University, priority 2024, published 2025).

Tests used:
[1] = test system: 4T1 cancer cells; experiment: Real Time Cell Analysis, cytotoxicity of T-cells +/- macrophages towards 4T1 cells; format: cell-based, mouse
Description: To investigate whether the effect of iTEAD treatment on macrophages can enhance their crosstalk with T-cells in the lung microenvironment, peritoneal macrophages+/−iTEAD were first isolated and characterized as a model of resident macrophages for ex vivo experiments (FIG. 14, Panel A). It was observed that treatment with VT107 decreased gene expression of M2-like and fibrosis regulators, Aldh1a1 and Cc117 (Chen et al., 2020), as well as TEAD4 and its downstream target gene Ankrd1. […] The iTEAD pretreated peritoneal macrophages and untreated T-cells isolated from the spleen of tumor naïve mice (FIG. 14, Panel A) were then mixed for 5 hours before collecting the conditioned media for analysis. […] Next, these immune cell mixes were added to 4T1 spheres that were embedded into matrix. […] This effect was reversed by an IL12 neutralizing antibody. No change in cleaved caspase-3 in 4T1 cells in the presence of VT107-treated T-cells or macrophages alone, was detected at 24 hours (FIG. 14, Panels C and D). 4T1 cells were then plated and allowed to attach on electrode-coated arrays to monitor cancer cell viability before the addition of macrophages+/−iTEAD and T-cells. […]
Cell analysis was done using E-plates from xCELLigence, (Agilent, #5469830001) according to the manufacturer's protocol. […] Cell index was measured by changes in electric impedance at 15 min intervals. […]

[2] = test system: peritoneal macrophages; experiment: Gene expression and pathway analysis of peritoneal macrophages treated in vitro; format: cell-based, mouse
Description: To investigate whether the effect of iTEAD treatment on macrophages can enhance their crosstalk with T-cells in the lung microenvironment, peritoneal macrophages+/−iTEAD were first isolated and characterized as a model of resident macrophages for ex vivo experiments (FIG. 14, Panel A). It was observed that treatment with VT107 decreased gene expression of M2-like and fibrosis regulators, Aldh1a1 and Cc117 (Chen et al., 2020), as well as TEAD4 and its downstream target gene Ankrd1. […] The iTEAD pretreated peritoneal macrophages and untreated T-cells isolated from the spleen of tumor naïve mice (FIG. 14, Panel A) were then mixed for 5 hours before collecting the conditioned media for analysis. […] Next, these immune cell mixes were added to 4T1 spheres that were embedded into matrix. […] This effect was reversed by an IL12 neutralizing antibody. No change in cleaved caspase-3 in 4T1 cells in the presence of VT107-treated T-cells or macrophages alone, was detected at 24 hours (FIG. 14, Panels C and D). 4T1 cells were then plated and allowed to attach on electrode-coated arrays to monitor cancer cell viability before the addition of macrophages+/−iTEAD and T-cells. […] This reversal of T-cell cytotoxicity by IL12 antibodies was not observed in VT107-treated T-cells in the absence of macrophages (FIG. 15, Panel E) indicating a critical role for IL12 in the crosstalk between macrophages and T-cells.
The total RNA from tissue or cell lines was extracted using RNeasy Mini Kit (Qiagen, #74104) according to the manufacturer's instructions. Total RNA integrity was assessed with the Agilent 2100 Bioanalyzer. The library preparation and next-generation sequencing (NGS) were performed at Novogene Corporation Inc. (Sacramento, CA, USA). At least triplicate samples per experimental condition were analyzed, raw sequence reads (150 bp paired end, […] average reads/sample) were aligned to the human or mouse transcriptome using STAR, and aligned reads translated to expression counts via featurecounts, followed by a standard edgeR (RRID:SCR_012802) pipeline to identify DEGs under specific conditions. Ingenuity pathway analysis (IPA, RRID:SCR_008653) was undertaken using a list of all differentially expressed genes with a cutoff of p-value less than 0.05 to identify signaling pathways and upstream regulators.

[3] = test system: lung resident macrophages; experiment: Cytokine array of conditioned media, isolated lung macrophages; format: cell-based, C57BL/6 mice
Description: Due to the shifts in immune signaling observed in the lung tissue upon TEAD inhibition (FIG. 9), immune cell populations were first analyzed by flow cytometry in the lungs and spleens of tumor naïve mice. Consistent with the Cibersort analysis of RNA-seq data, there was a decrease in the monocytes population and an increase in the tissue-resident alveolar macrophages (AM) (FIG. 10, Panel A). […] Next, it was sought to determine the specific effects of iTEAD treatment on lung resident versus bone-marrow derived macrophages, as the dynamics of these cell populations are crucial for the establishment of the metastatic niche (Ries et al., 2014; Qian et al., 2011). Macrophages were retrieved from the lungs by isolating F4/80+ cells, a specific marker for murine macrophages, by FACS (fluorescence-activated cell sorting) as well as bone marrow-derived macrophages from the femurs of naïve C57BL/6 mice that were then differentiated in vitro using macrophage colony stimulating factor (M-CSF). Macrophages were treated with 1 μM of VT107 for 24 hours before the conditioned media was collected and analyzed on a cytokine array. […] There was no change in the level of the other cytokines detected (FIG. 10, Panel B).
Cells were grown in their recommended cell culture media and treated with […] VT107 for 24 or 72 hours. Conditioned media was collected and passed through a 0.2 micron PES filter then analyzed on a RayBio® Mouse Cytokine Array (#AAM-TCR-1) according to the manufacture's protocol. The array includes two spots for each cytokine. The luminescence signal was normalized to the positive control on each membrane, then to the vehicle treatment signal of each cytokine.

[4] = test system: Jurkat cells; experiment: Real Time Cell Analysis, cytotoxicity of Jurkat cells towards 4T1 cells; format: cell-based, human; settings: 1 μM VT107 for 24 hours
Experimental: The hippo pathway has been implicated in T-cell development and function (Du et al., 2014; Ueda et al., 2012). For example, YAP expression is essential for tumor immune suppression by Treg cells that attenuates CD8 T-cell immunity (Geng et al., 2017; Ni et al., 2018; Lebid et al., 2020). […] To investigate whether VT107 directly affected T-cells, T-cells treated with VT107 were co-cultured with 4T1 cells in 2D for 72 hours. […] To further confirm T-cell activation upon TEAD activity reduction, we used Jurkat cells, a CD4 positive human lymphoma cell line (Schneider et al., 1977). […] However, here we show the specific effect of TEAD reduction on granzyme gene expression and degranulation that result in the killing of cancer cells.
Cell analysis was done using E-plates from xCELLigence, (Agilent, #5469830001) according to the manufacturer's protocol. For cell cytotoxicity, cancer cells (10,000-25,000 cells per well) were seeded and allowed to attach for 1-2 hours prior to the addition of immune cells and/or drug treatments. For cell proliferation, cancer cells were seeded at 5,000-10,000 cells per well with incremental doses of drug treatments or DMSO as a vehicle control. Cell index was measured by changes in electric impedance at 15 min intervals. TEAD inhibitors were obtained from Vivace therapeutics. […]

[5] = 1 μM VT107 for 24 hours, pathway analysis

In the case of VT107, the “cytotoxicity of T-cells alone” value ([1]; extended VT107 treatment) is reported as “slight increase”, the “T-cells' cytotoxicity towards 4T1 cells” value ([1]; macrophages pretreated 24 hrs with 1 μM VT107, compared to T-cells alone) is reported as “significantly increased” and the “cell cycle related pathways” value [2, 5] is reported as “upregulated”. The “disease-related chronic inflammation pathways” value [2, 5] was “downregulation”, the Pvalb gene expression ([2]; 1 μM VT107 for 72 hours) was “top upregulated gene” and the “gene expression of Aldh1a1, Cc117, TEAD4 and Ankrd1” value ([2]; 1 μM VT107 for 72 hours) was “decreased”. The “level of the other cytokines detected” value ([3]; 1 μM VT107 24 hours, lung and bone marrow-derived macrophages) was “no change”, the “secreted IL4” value ([3]; 1 μM VT107 for 24 hours) was “significantly higher level” and the “secreted IL12” value ([3]; 1 μM VT107 for 24 hours) was “significantly higher level”. The “Jurkat cytotoxicity towards co-cultured 4T1 cells” value [4] was “enhanced cytotoxicity”.
